From patent publication US20240299328A1, “COMPOSITIONS COMPRISING 15-HEPE AND METHODS OF TREATING AND/OR PREVENTING HEMATOLOGIC DISORDERS AND RELATED DISEASES” (Afimmune Limited, priority 2023, published 2024)

Assays:
[1] = tested on: protein and lipid biomarkers of NAFLD patients; experiment: Phase IIa NAFLD study: lipidomics and proteomics of blood samples; format: in vivo, human
Description: Exploratory analysis: The exploratory analysis included analysis of lipid and metabolic parameters including total cholesterol, triglycerides, very low-density lipoprotein cholesterol (VLDL-C), low density lipoprotein cholesterol (LDL-C), high density lipoprotein cholesterol (HDL-C), non-high-density lipoprotein cholesterol (non-HDL-C), remnant-like particle cholesterol (RLP-C), fasting glucose, insulin, free fatty acids and hemoglobin A1C (HbA1C). Additional exploratory analysis included high throughput lipidomics and proteomics.

[2] = tested on: humanized sickle cell (SS) mice; experiment: Humanized SCD (SS) mice under normoxia, 6 weeks treatment; format: in vivo; conditions: 1000 mg/Kg/d for 6 weeks
Experimental: Animals and design of the study: Experiments were performed on 4-5 months-old sex matched healthy control (Hba^tm1(HBA) Tow Hbb^tm3(HBG1, HBB) Tow) and SCD (Hba^tm1(HBA)Tow Hbb^tm2(HBG1.HBB*)Tow) mice. The study used 4-5 months-old mice. The sickle cell related organ damage is not so severe to generate confounding factors when the impact of H/R induced stress is evaluated. This is also corroborated by the observation of Kasztan M et al who show gender-related differences in kidney function of humanized SCD mice becoming significant after 24 weeks (6 months) of age. The size of the mouse groups was established based on studies with the same mouse model for SCD generated by us and other labs. Mice were randomly assigned to the different treatment groups and analysis. Healthy and SS mice were treated with ether vehicle (hydroxypropyl methyl cellulose, HPMC, 0.5%) or Epeleuton in HPMC 0.5% (1000 mg/kg/day) administrated by gavage for 6 weeks. […] When indicated, mice underwent a hypoxia/reoxygenation stress (H/R): 10 hours hypoxia (8% oxygen) followed by 3 hours reoxygenation (21% oxygen) to mimic acute vaso-occlusive crisis as previously described. Whole blood and organs were collected from each mouse under isoflurane anesthesia. Organs were immediately removed and divided into two portions which were either immediately frozen in liquid nitrogen or fixed in 10% formalin and embedded in paraffin for histology. Hematological parameters were evaluated with a Sysmex XN-1000 Hematology Analyzer and red cell morphology was evaluated as previously reported. Biochemical assays were performed using standard biochemical assays, as previously reported. Plasmatic Pentraxin 2 and CCL-2 and CXCL-2 were measured respectively using the Mouse Pentraxin 2/SAP Quantikine ELISA Kit and the next generation ELISA kit according to the manufacturer's instruction.
Immunoblot analysis: Packed red cells were lysed in ice-cold phosphate lysis buffer (5 mM Na2HPO4, pH 8.0, containing protease inhibitor cocktail tablets, 3 mM benzamidine final concentration, 1 mM Na3VO4 final concentration) and centrifuged 10 min at 4° C. at 12,000 g. Red cell membrane (ghost) and cytosol fractions were obtained as previously reported. Frozen lung, kidney and aorta from each studied group were homogenized and lysed with iced lyses buffer (150 mM NaCl, 25 mM bicine, 0.1% SDS, 2% Triton X-100, 1 mM EDTA, protease inhibitor cocktail tablets, 1 mM Na3VO4 final concentration) then centrifuged 30 min at 4° C. at 12,000 g. Specific antibodies used are: anti Phospho-Tyrosine (clone PY99 from SCBT, Santa Cruz, CA (dilution 1:3000, 75 μg loaded) and clone 4G10 from Merck KGaA, Darmstadt, Germany (dilution 1:1600, 75 μgr loaded)); anti Phospho (Ser536) NF-kB p65 (dilution 1:1000, 75 μg loaded) and anti NF-kB p65 (clone C22B4) (dilution 1:1000, 75 μgr loaded) from Cell Signaling Technology (Danvers, MA, USA); anti-NLRP3/NALP3 from Vinci-Biochem Srl, Vinci, Italy (dilution 1:1000, 75 μgr loaded); anti Endothelin-1 (ET-1) form AbCam, Cambridge, UK (dilution 1:1000, 75 μgr loaded); anti VCAM-1 (R and D Systems, Minneapolis, MN, USA (dilution 1:1000, 40 μgr loaded)); anti ICAM-1 (clone EP1442Y, dilution 1:1000, 75 μgr loaded, AbCam, Cambridge, UK); anti TXAS-1 (Cayman, Ann Arbor, MI, USA); anti Nrf2-phospho-S40 (Clone EP1809Y, dilution 1:1000, 75 μgr loaded, AbCam, Cambridge, UK); anti-Nrf2 (dilution 1:1000, 75 μgr loaded, AbCam, Cambridge, UK); anti Nqo1 from Santa Cruz Biotechnology, Inc, CA, USA (clone C-19; dilution 1:1000, 75 μgr/μl loaded); anti-heme oxygenase 1(HO-1) form SCBT (Santa Cruz, CA, USA (dilution 1:1000, 50 μgr loaded); E-selectin (H-300) (dilution 1:1000, 75 μgr loaded); anti GAPDH from SCBT (Santa Cruz, CA, USA (dilution 1:5000, 50 μgr loaded)); anti Actin from SCBT (Santa Cruz, CA, USA (clone 2A3, dilution 1:1000, 50 μgr/loaded)). […]

Compound: CC/C=C\C[C@H](O)/C=C/C=C\C/C=C\C/C=C\CCCC(=O)OCC [DS102, 15(S)-hydroxy-(5Z,8Z,11Z,13E,17Z)-eicosapentaenoic acid ethyl ester]
- expression of multiple circulating chemokines [1]: decreased
- expression of multiple proteins associated with increased cardiovascular risk [1]: decreased
- expression of multiple tumor necrosis factor receptor superfamily members [1]: decreased
- expression of multiple vascular adhesion molecules [1]: decreased
- TR (transferrin receptor protein 1) ([1]; 1 g): significant reductions
- NASH drug development targets (CCR2/5 signaling, Galectin3, AOC3) ([1]; 2 g): decreased
- levels of multiple glycerophospholipid groups ([1]; 2 g): significantly increased
- levels of multiple hepatotoxic diglycerides ([1]; 2 g): significantly decreased
- inflammatory and pro-fibrotic proteins (Table 19: PAI-1, TIMP-1, DPP4, TLT2, CCL16, MCP-1, SAA4, PI3/Elafin, TR, LILRB1, TNRSF11A) ([1]; 2 g, Bonferroni and Benjamini-Hochberg testing): decreased
- number of markers (inflammation, fibrosis, lipid metabolism, apoptosis, chemotaxis) with significantly downregulated expression ([1]; 2 g, panel of greater than 350 protein biomarkers): over 150
- tolerability and body weight [2]: well tolerated without major changes in body weight
- ALT ([2]; normoxia): significant reduction
- AST ([2]; normoxia): no change
- CRP ([2]; normoxia): significant reduction
- circulating neutrophils ([2]; normoxia): significant reduction
- expression of VCAM-1, ICAM1 and endothelin-1 (ET-1) in lungs, kidneys, livers ([2]; normoxia): significantly reduction
- liver protein oxidation ([2]; normoxia): marked reduction
- pentraxin-2 ([2]; normoxia): trend toward a reduction
- plasma CCL2/MCP1 ([2]; normoxia): lower
- BUN ([2]; normoxia, vs vehicle): no change
- activation of NF-kB in lungs, kidneys, and livers ([2]; normoxia, vs vehicle): significantly reduced
- expression of ICAM-1 and ET-1 in isolated aortas ([2]; normoxia, vs vehicle): significantly down-regulated
- serum creatinine ([2]; normoxia, vs vehicle): trend toward a reduction
- hematocrit or reticulocyte counts ([2]; normoxic conditions): no significant changes
